Reference: patent publication US9040568B2, “Pharmaceutical compositions for the treatment of pain” (AbbVie Inc., priority 2009, dated 2015)

How the values were obtained:
Type in all cases: in vivo, rat
[1] = tested on: post-operative pain (skin incision of the hind paw); experiment: Incision model of postoperative pain (mechanical allodynia, von Frey)
Experimental: Paw incision was performed under isoflurane (2-3%) anesthesia and followed procedures previously described (Brennan et al., 1996). Briefly, the plantar aspect of the left hindpaw was placed through a hole in a sterile plastic drape. A 1-cm longitudinal incision was made through the skin and fascia, starting 0.5 cm from the proximal edge of the heel and extending towards the toes, the plantar muscle was elevated and injured longitudinally leaving the muscle origin and insertion points intact. After hemostasis with gentle pressure, the skin was apposed with 2 mattress sutures of 5-0 nylon. Mechanical allodynia was measured using calibrated von Frey filaments (Stoelting, Wood Dale, Ill.) as previously described (Chaplan et al., 1994) in all animals 2 h following surgery. Rats were placed into inverted individual plastic containers (20×12.5×20 cm) on top of a suspended wire mesh grid, and acclimated to the test chambers for 20 min. The von Frey filaments were presented perpendicularly to the plantar surface pointing towards the medial side of the incision (Brennan et al., 1996), and then held in this position for approximately 8 s with enough force to cause a slight bend in the filament. Positive responses included an abrupt withdrawal of the hind paw from the stimulus, or flinching behavior immediately following removal of the stimulus. A 50% paw withdrawal threshold (PWT) was determined using an up-down procedure (Dixon, 1980). Mechanical allodynia was assessed 30 min following i.p. compound administration.

[2] = tested on: nerve injury induced mechanical allodynia; experiment: Chung model of neuropathic pain (L5-L6 spinal nerve ligation, tactile allodynia, von Frey)
Experimental: To assess whether α4β2 PAM can increase antinociceptive responses of agonists in vivo, the following study was conducted. The materials and methods used to accomplish the study follow.
Male Sprague-Dawley rats (Charles River, Wilmington, Mass.) weighing 120-150 grams at time of surgery were utilized. These animals were group housed in AAALAC approved facilities at Abbott Laboratories in a temperature-regulated environment with lights on between 0700 and 2000 hours. Food and water was available ad libitum except during testing. All animal handling and experimental protocols were approved by an institutional animal care and use committee (IACUC). All experiments were performed during the light cycle.
5[(2R)-Azetidin-2-ylmethoxy]-2-chloropyridine (Compound A, 1-100 nmol/kg) and 3-(3-pyridin-3-yl)-1,2,4-oxadiazol-5-yl)benzonitrile (α4β2 PAM Compound 1, 1-35 μmol/kg, i.p.) was used. Compound A and D was prepared in saline and injected in solution in a volume of 2 ml/kg body weight 30 minutes before behavioral evaluation. Compound 1,3-(3-(pyridin-3-yl)-1,2,4-oxadiazol-5-yl)benzonitrile, was prepared in 30% hydroxybetacyclodextrin and injected in solution in a volume of 4 ml/kg body weight immediately before Compound A. For studies with Compound D, the doses tested ranged from 0.3-30 μmol/kg i.p.
To produce neuropathic pain, tight ligation of the L5-L6 spinal nerves was performed. As previously described in detail by Kim and Chung (Kim S H and Chung J M (1992), Pain 50: 355), following sterilization procedures, a 1.5 cm incision was made dorsal to the lumbosacral plexus. The paraspinal muscles (left side) were separated from the spinous processes, the L5 and L6 spinal nerves isolated, and tightly ligated with 3-0 silk thread. Following hemostasis, the wound was sutured and coated with antibiotic ointment. The rats were allowed to recover and then placed in a cage with soft bedding for 7-14 days before behavioral testing for mechanical allodynia.
Tactile allodynia was measured using calibrated (force; g) von Frey filaments (Stoelting, Wood Dale, Ill.). Briefly, rats were placed into individual plexiglass containers and allowed to acclimate for 15-20 minutes before testing. Withdrawal threshold was determined by increasing and decreasing stimulus intensity and estimated using a Dixon non-parametric test (Chaplan et al., 1994; Chaplan S R, Bach F W, Pogrel J W, Chung J M and Yaksh T L (1994) J Neurosci Methods 53:55-63). Only rats with threshold scores<4.5 g were considered allodynic and utilized in further testing. A percent of maximal possible effect (% M.P.E.) of the tested compounds was calculated according to the formula: ([post-drug threshold]-[baseline threshold])/([maximum threshold]-[baseline threshold])×100%, where maximum threshold was equal to 15 g.
Analysis of the in vivo data was carried out using analysis of variance. Where appropriate, Bonferroni's Multiple Comparison Test was used for post-hoc analysis. The level of significance was set at p less than 0.05. Data are presented as mean±S.E.M.

[3] = tested on: MIA-induced osteoarthritis pain; experiment: Monoiodoacetate-induced osteoarthritis (MIA-OA) pain model, compressive grip force
Experimental: Under light isoflurane (2-3%) anesthesia, MIA (3 mg) was unilateral intra-articularly injected into right hind knee joint in a volume of 50 μl as previously described (Chandran et al., 2009). Compressive grip force (CGF) was determined 20 days following MIA injection by recording the maximum compressive force exerted on the hind limb strain gauge setup, using a commercially available grip force measurement system (Columbus Instruments, Columbus, Ohio). In this assay, each rat was gently restrained and the hind paw was allowed to grasp the wire mesh frame (10×12 cm) attached to the strain gauge. The animal was then moved in a rostral-to-caudal direction until the grip was broken, and CGF reading expressed as g was recorded. Each rat was sequentially tested twice at approximately 2-3 min intervals to obtain an average raw CGF. To avoid confounding factor of body weight, CGF was converted into CGFbody following the formula: g (CGF)÷kg (body weight). CGF was assessed 30 min following i.p. compound administration. The vehicle control group was taken as 0%, whereas the age-matched naïve group was described as 100% (normal), the analgesic efficacy was expressed as the percentage return of CGFbody to normalcy vs. the naïve group: [(treatment-vehicle)/(naïve-vehicle)]×100%. Experiments were performed in animals 20 days following MIA knee joint injection, since this is the time point that maximal reduction of grip force observed in the time-course experiment (Chandran et al., 2009).

[4] = Compound A 10 nmol/kg combined with Compound 1 (3.5 μmol/kg)
[5] = co-administration of Compound 1

## Clc1ccc(OC[C@H]2CCN2)cn1 [Compound A, 5-[(2R)-azetidin-2-ylmethoxy]-2-chloropyridine]
[1]; [4]
  percent reversal of mechanical allodynia: 22±14%
[1]; Compound A 10 nmol/kg in the presence of Compound 1 (3.5 μmol/kg)
  PWT: 5.0 ± 1.9 g
[1]; Compound A 30 nmol/kg combined with Compound 1 (3.5 μmol/kg)
  percent reversal of mechanical allodynia: 54±16%
[1]; Compound A 30 nmol/kg in the presence of Compound 1 (3.5 μmol/kg)
  PWT: 9.2 ± 2.1 g
[1]; Compound A 100 nmol/kg combined with Compound 1 (3.5 μmol/kg)
  percent reversal of mechanical allodynia: 85±10%
[1]; Compound A 100 nmol/kg in the presence of Compound 1 (3.5 μmol/kg)
  PWT: 13.1 ± 1.2 g
[1]; Compound A alone, 100 nmol/kg
  PWT: 6.0 ± 1.0 g
  percent reversal of mechanical allodynia: 25±8%
[1]; Compound A alone, 300 nmol/kg
  PWT: 12.0 ± 1.6 g
  percent reversal of mechanical allodynia: 75±12%
[1]; Rattus norvegicus, Compound A alone, read-out: ED50 (reversal of mechanical allodynia)
  ED50: 0.165 µmol/kg
[1]; [5]
  leftward shift in the DRC of Compound A: 6 fold
[2]; Compound A 1 nmol/kg alone
  efficacy in neuropathic pain: ineffective
[2]; Compound A 1 nmol/kg combined with varying doses of Compound 1
  efficacy in neuropathic pain: dose-dependent increase in efficacy
[2]; Compound A co-administered with Compound 1 (PAM)
  mechanical paw withdrawal threshold (PWT): 12.1 ± 0.5 g
[3]; Compound A 0.3 nmol/kg combined with Compound 1 (3.5 μmol/kg)
  percent return of grip force to normalcy: 29±2%
[3]; Compound A 0.3 nmol/kg/kg in the presence of Compound 1 (3.5 μmol/kg)
  CGFbody: 657 ± 21 g
[3]; Compound A 1 nmol/kg combined with Compound 1 (3.5 μmol/kg)
  percent return of grip force to normalcy: 50±3%
[3]; Compound A 1 nmol/kg/kg in the presence of Compound 1 (3.5 μmol/kg)
  CGFbody: 855 ± 28 g
[3]; Compound A 3 nmol/kg combined with Compound 1 (3.5 μmol/kg)
  percent return of grip force to normalcy: 66±5%
[3]; Compound A 3 nmol/kg/kg in the presence of Compound 1 (3.5 μmol/kg)
  CGFbody: 971 ± 35 g
[3]; [4]
  percent return of grip force to normalcy: 92±6%
[3]; Compound A 10 nmol/kg/kg in the presence of Compound 1 (3.5 μmol/kg)
  CGFbody: 1243 ± 56 g
[3]; Compound A alone, 1 nmol/kg
  CGFbody: 575 ± 37 g
  percent return of grip force to normalcy: 20±4%
[3]; Compound A alone, 3 nmol/kg
  CGFbody: 717 ± 64 g
  percent return of grip force to normalcy: 35±6%
[3]; Compound A alone, 10 nmol/kg
  CGFbody: 992 ± 45 g
  percent return of grip force to normalcy: 65±5%
[3]; Compound A alone, 30 nmol/kg
  CGFbody: 1234 ± 37 g
  percent return of grip force to normalcy: 90±4%
[3]; Rattus norvegicus, Compound A alone, read-out: ED50 (return of grip force to normalcy)
  ED50: 0.0046 µmol/kg
[3]; [5]
  leftward shift in the DRC of Compound A: 5 fold

## N#Cc1cccc(-c2nc(-c3cccnc3)no2)c1 [Example 1, 3-(3-(pyridin-3-yl)-1,2,4-oxadiazol-5-yl)benzonitrile]
[1]; Compound 1 alone, up to 35 μmol/kg, i.p.
  alteration of PWT of the injured paw: produced no alteration of PWT
[2]; Compound 1 3.5 μmol/kg with various doses of Compound A
  effect on the dose response curve of Compound A: left-shifting the dose response curve of Compound A
[2]; administered alone
  efficacy in neuropathic pain: ineffective
[3]; Compound 1 alone, 3.5 μmol/kg i.p.
  return of grip force normalcy: produced no return of grip force normalcy
